Laboratory results from the supplement of paper PMC10883282.

Key:
Experiment in all cases: standardised AUC of viability dose-response curve (72 h) (fraction (0-1)); higher = less growth inhibition (more resistant)
[1] = test system: A204
In short: (§1)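 Sarcoma cell lines in 384-well plates were treated in triplicate for 72 h with 2.5 µl of a compound dilution series, made in 1:3 steps from 10 mM to 0.0002 mM on the compound plate. ATPLite viability was scaled from 1 (full) to 0 (none) and fitted per drug and cell line with a four-parameter log-logistic model. The values are standardised areas under the dose-response curve in log-dose space, from a modified drexplorer computeAUC. On that scale, 1 means no response and 0 means full response.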

[2] = test system: G401
In short: as §1

[3] = test system: HS729
In short: as §1

[4] = test system: HT1080
In short: as §1

[5] = test system: KHOS-240S
In short: as §1

[6] = test system: KHOS-NP
In short: as §1

[7] = test system: MES-SA
In short: as §1

[8] = test system: RD-ES
In short: as §1

[9] = test system: RD
In short: as §1

[10] = test system: SK-ES-1
In short: as §1

[11] = test system: SK-LMS-1
In short: as §1

[12] = test system: SW1353
In short: as §1

[13] = test system: SW684
In short: as §1

[14] = test system: SW872
In short: as §1

[15] = test system: SW982
In short: as §1

[16] = test system: SYO-1
In short: as §1

[17] = test system: VA-ES-BJ
In short: as §1

SMILES	standardised AUC [1]	standardised AUC [2]	standardised AUC [3]	standardised AUC [4]	standardised AUC [5]	standardised AUC [6]	standardised AUC [7]	standardised AUC [8]	standardised AUC [9]	standardised AUC [10]	standardised AUC [11]	standardised AUC [12]	standardised AUC [13]	standardised AUC [14]	standardised AUC [15]	standardised AUC [16]	standardised AUC [17]
COc1cc2nccc(Oc3ccc(NC(=O)Nc4cc(C)on4)c(Cl)c3)c2cc1OC [TIVOZANIB]	0.658	0.933	0.971	0.995	0.954	0.983	0.931	0.974	0.985	0.971	0.956	0.97	0.985	0.982	0.974	0.807	0.995
COCc1c(-c2cc3cc(C)cc(OC)c3s2)c2c(N)ncnn2c1CN1CCNC(=O)C1 [ROGARATINIB]	0.755	0.807	0.776	0.999	0.854	0.987	0.85	0.934	0.958	0.907	0.952	0.851	0.974	0.943	0.93	0.751	0.962
COc1cccc2c1C(=O)c1c(O)c3c(c(O)c1C2=O)C[C@@](O)(C(=O)CO)C[C@@H]3O[C@H]1C[C@H](N)[C@H](O)[C@H](C)O1 [DOXORUBICIN]	0.532	0.577	0.638	0.6	0.588	0.694	0.496	0.472	0.609	0.439	0.672	0.669	0.796	0.655	0.537	0.47	0.574
